Each structure is given as a SMILES string.

One experiment has as its target T1, Human macrophage mannose receptor 1 (MRC1) (Homo sapiens, UniProt P22897).
T1 sequence (P22897 19-1456): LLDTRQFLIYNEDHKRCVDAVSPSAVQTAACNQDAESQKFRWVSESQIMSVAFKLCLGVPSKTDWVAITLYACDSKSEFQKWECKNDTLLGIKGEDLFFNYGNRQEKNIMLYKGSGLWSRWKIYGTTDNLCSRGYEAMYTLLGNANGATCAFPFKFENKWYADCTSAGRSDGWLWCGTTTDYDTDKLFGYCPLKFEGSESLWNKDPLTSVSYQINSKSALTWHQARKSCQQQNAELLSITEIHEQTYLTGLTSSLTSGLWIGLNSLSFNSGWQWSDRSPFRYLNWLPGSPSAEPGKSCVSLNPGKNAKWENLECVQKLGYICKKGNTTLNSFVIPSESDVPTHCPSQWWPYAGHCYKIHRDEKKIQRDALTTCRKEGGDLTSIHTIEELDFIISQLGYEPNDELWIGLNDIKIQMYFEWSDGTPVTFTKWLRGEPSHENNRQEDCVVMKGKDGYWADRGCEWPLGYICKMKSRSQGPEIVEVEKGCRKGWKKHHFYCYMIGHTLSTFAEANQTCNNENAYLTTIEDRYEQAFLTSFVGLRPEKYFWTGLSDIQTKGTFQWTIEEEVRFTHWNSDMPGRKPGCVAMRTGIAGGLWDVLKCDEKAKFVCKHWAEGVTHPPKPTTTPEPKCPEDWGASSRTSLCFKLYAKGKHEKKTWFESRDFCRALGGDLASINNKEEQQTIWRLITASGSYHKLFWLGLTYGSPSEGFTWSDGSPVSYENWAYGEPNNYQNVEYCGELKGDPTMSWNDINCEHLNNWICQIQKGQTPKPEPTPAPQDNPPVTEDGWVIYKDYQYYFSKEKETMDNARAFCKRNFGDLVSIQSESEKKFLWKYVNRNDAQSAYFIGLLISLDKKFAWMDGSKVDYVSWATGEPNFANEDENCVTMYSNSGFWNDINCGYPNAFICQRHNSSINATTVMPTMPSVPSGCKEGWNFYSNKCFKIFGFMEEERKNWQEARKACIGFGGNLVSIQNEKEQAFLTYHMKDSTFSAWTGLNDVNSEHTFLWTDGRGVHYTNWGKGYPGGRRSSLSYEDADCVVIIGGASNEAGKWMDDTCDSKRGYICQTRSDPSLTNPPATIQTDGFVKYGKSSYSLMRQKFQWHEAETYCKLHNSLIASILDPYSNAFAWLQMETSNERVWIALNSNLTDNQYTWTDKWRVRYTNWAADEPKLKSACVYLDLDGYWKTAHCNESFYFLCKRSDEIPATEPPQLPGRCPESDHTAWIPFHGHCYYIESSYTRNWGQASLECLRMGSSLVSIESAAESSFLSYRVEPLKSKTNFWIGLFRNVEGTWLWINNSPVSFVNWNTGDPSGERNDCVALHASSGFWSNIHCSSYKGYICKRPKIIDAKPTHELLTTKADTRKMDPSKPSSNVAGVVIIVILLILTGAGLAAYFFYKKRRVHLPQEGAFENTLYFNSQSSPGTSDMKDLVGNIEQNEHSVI
Nature of the experiment: MRC1 competition binding assay with Eu-mannosylated-BSA. Particulars: Method E: 96-well plate; IP = inflection point; read-out: MRC1 Binding IP.
On to `CC(=O)[C@H](CCCCN)NC(=O)CCCCC(=O)N[C@@H](CCC(=O)N[C@@H](CCC(=O)NCCO[C@@H]1O[C@@H](C)[C@@H](O)[C@@H](O)[C@@H]1O)C(=O)NCCO[C@@H]1O[C@@H](C)[C@@H](O)[C@@H](O)[C@@H]1O)C(=O)NCCO[C@H]1O[C@H](CO[C@H]2O[C@H](CO)[C@@H](O)[C@H](O)[C@@H]2O)[C@@H](O)[C@H](O[C@H]2O[C@H](CO)[C@@H](O)[C@H](O)[C@@H]2O)[C@@H]1O` [IOC-3], for which the IC50 stood at 42.2 nM.
On the same count and under the same terms, for `CC(=O)[C@H](CCCCN)NC(=O)CCCCC(=O)N[C@@H](CCC(=O)NCCO[C@H]1O[C@H](CO[C@H]2O[C@H](CO)[C@@H](O)[C@H](O)[C@@H]2O)[C@@H](O)[C@H](O[C@H]2O[C@H](CO)[C@@H](O)[C@H](O)[C@@H]2O)[C@@H]1O)C(=O)N[C@@H](CCC(=O)NCCO[C@H]1O[C@H](CO[C@H]2O[C@H](CO)[C@@H](O)[C@H](O)[C@@H]2O)[C@@H](O)[C@H](O[C@H]2O[C@H](CO)[C@@H](O)[C@H](O)[C@@H]2O)[C@@H]1O)C(=O)N[C@@H](CC(C)C)C(=O)NCCO[C@H]1O[C@H](CO[C@H]2O[C@H](CO)[C@@H](O)[C@H](O)[C@@H]2O)[C@@H](O)[C@H](O[C@H]2O[C@H](CO)[C@@H](O)[C@H](O)[C@@H]2O)[C@@H]1O` [IOC-4] the value was 7.56 nM; for `CC(=O)[C@H](CCCCN)NC(=O)CCCCC(=O)NCC(=O)N[C@@H](CCC(=O)N[C@@H](CCC(=O)NCCCCCC(=O)NCCO[C@H]1O[C@H](CO[C@H]2O[C@H](CO)[C@@H](O)[C@H](O)[C@@H]2O)[C@@H](O)[C@H](O[C@H]2O[C@H](CO)[C@@H](O)[C@H](O)[C@@H]2O)[C@@H]1O)C(=O)NCCCCCC(=O)NCCOC1O[C@H](CO[C@H]2O[C@H](CO)[C@@H](O)[C@H](O)[C@@H]2O)[C@@H](O)[C@H](O[C@H]2O[C@H](CO)[C@@H](O)[C@H](O)[C@@H]2O)[C@@H]1O)C(=O)NCCCCCC(=O)NCCO[C@H]1O[C@H](CO[C@H]2O[C@H](CO)[C@@H](O)[C@H](O)[C@@H]2O)[C@@H](O)[C@H](O[C@H]2O[C@H](CO)[C@@H](O)[C@H](O)[C@@H]2O)[C@@H]1O` (some centres unmarked) [IOC-5], 9.12 nM; for `CC(=O)[C@H](CCCCN)NC(=O)CCCCCNC(=O)[C@H](CCCCNC(=O)CCCCC(=O)NCCO[C@H]1O[C@H](CO[C@H]2O[C@H](CO)[C@@H](O)[C@H](O)[C@@H]2O)[C@@H](O)[C@H](O[C@H]2O[C@H](CO)[C@@H](O)[C@H](O)[C@@H]2O)[C@@H]1O)NC(=O)[C@H](CCCCNC(=O)CCCCC(=O)NCCO[C@H]1O[C@H](CO[C@H]2O[C@H](CO)[C@@H](O)[C@H](O)[C@@H]2O)[C@@H](O)[C@H](O[C@H]2O[C@H](CO)[C@@H](O)[C@H](O)[C@@H]2O)[C@@H]1O)NC(=O)CCCCC(=O)NCCO[C@H]1O[C@H](CO[C@H]2O[C@H](CO)[C@@H](O)[C@H](O)[C@@H]2O)[C@@H](O)[C@H](O[C@H]2O[C@H](CO)[C@@H](O)[C@H](O)[C@@H]2O)[C@@H]1O` [IOC-7], 7.17 nM.
Consider `CC(=O)[C@H](CCCCN)NC(=O)CCCCC(=O)N[C@@H](CCC(=O)NCCO[C@H]1O[C@H](CO)[C@@H](O)[C@H](O)[C@@H]1O)C(=O)N[C@@H](CCC(=O)NCCO[C@H]1O[C@H](CO)[C@@H](O)[C@H](O)[C@@H]1O)C(=O)N[C@@H](CCC(=O)NCCO[C@H]1O[C@H](CO)[C@@H](O)[C@H](O)[C@@H]1O)C(=O)NCCO[C@H]1O[C@H](CO)[C@@H](O)[C@H](O)[C@@H]1O` [IOC-16], for which the IC50 amounted to 86.7 nM.
The same measure, in the same setting: with `CC(=O)[C@H](CCCCN)NC(=O)CCCCC(=O)N[C@@H](CCC(=O)NCCO[C@H]1O[C@H](CO)[C@@H](O)[C@H](O)[C@@H]1O)C(=O)N[C@@H](CCC(=O)NCCO[C@H]1O[C@H](CO)[C@@H](O)[C@H](O)[C@@H]1O)C(=O)N[C@@H](CCC(=O)NCCO[C@H]1O[C@H](CO)[C@@H](O)[C@H](O)[C@@H]1O)C(=O)NCCO[C@H]1O[C@H](CO[C@H]2O[C@H](CO)[C@@H](O)[C@H](O)[C@@H]2O)[C@@H](O)[C@H](O[C@H]2O[C@H](CO)[C@@H](O)[C@H](O)[C@@H]2O)[C@@H]1O` [IOC-23] the figure was 37.2 nM.
The same measure, in the same setting: for `CC(=O)[C@H](CCCCN)NC(=O)CCCCC(=O)N[C@@H](CCC(=O)N[C@@H](CCC(=O)N[C@@H](CCC(=O)NCCCCCC(=O)NCCO[C@H]1O[C@H](CO[C@H]2O[C@H](CO)[C@@H](O)[C@H](O)[C@@H]2O)[C@@H](O)[C@H](O[C@H]2O[C@H](CO)[C@@H](O)[C@H](O)[C@@H]2O)[C@@H]1O)C(=O)NCCCCCC(=O)NCCO[C@H]1O[C@H](CO[C@H]2O[C@H](CO)[C@@H](O)[C@H](O)[C@@H]2O)[C@@H](O)[C@H](O[C@H]2O[C@H](CO)[C@@H](O)[C@H](O)[C@@H]2O)[C@@H]1O)C(=O)NCCCCCC(=O)NCCO[C@H]1O[C@H](CO[C@H]2O[C@H](CO)[C@@H](O)[C@H](O)[C@@H]2O)[C@@H](O)[C@H](O[C@H]2O[C@H](CO)[C@@H](O)[C@H](O)[C@@H]2O)[C@@H]1O)C(=O)NCCCCCC(=O)NCCO[C@H]1O[C@H](CO[C@H]2O[C@H](CO)[C@@H](O)[C@H](O)[C@@H]2O)[C@@H](O)[C@H](O[C@H]2O[C@H](CO)[C@@H](O)[C@H](O)[C@@H]2O)[C@@H]1O` [IOC-24] the value was 3.32 nM.

Staying with this experiment, now noted: Method F: 384-well plate; IP = inflection point; read-out: MRC1 Binding IP.
In the case of `CC(=O)[C@H](CCCCN)NC(=O)CCCCC(=O)NCC(=O)N[C@@H](CCC(=O)N[C@@H](CCC(=O)NCCCCCC(=O)N(CCOC1O[C@H](CO)[C@@H](O)[C@H](O)[C@@H]1O)CCO[C@H]1O[C@H](CO)[C@@H](O)[C@H](O)[C@@H]1O)C(=O)NCCCCCC(=O)N(CCOC1O[C@H](CO)[C@@H](O)[C@H](O)[C@@H]1O)CCOC1O[C@H](CO)[C@@H](O)[C@H](O)[C@@H]1O)C(=O)NCCCCCC(=O)NCCO[C@H]1O[C@H](CO[C@H]2O[C@H](CO)[C@@H](O)[C@H](O)[C@@H]2O)[C@@H](O)[C@H](O[C@H]2O[C@H](CO)[C@@H](O)[C@H](O)[C@@H]2O)[C@@H]1O` (some centres unmarked) [IOC-27], the IC50 was found to be 20.7 nM.
Take `CC(=O)[C@H](CCCCN)NC(=O)CCCCC(=O)NCC(=O)N[C@@H](CCC(=O)N[C@@H](CCC(=O)NCCCCCC(=O)N(CCOC1O[C@H](CO)[C@@H](O)[C@H](O)[C@@H]1O)CCOC1O[C@H](CO)[C@@H](O)[C@H](O)[C@@H]1O)C(=O)NCCCCCC(=O)N(CCOC1O[C@H](CO)[C@@H](O)[C@H](O)[C@@H]1O)CCOC1O[C@H](CO)[C@@H](O)[C@H](O)[C@@H]1O)C(=O)NCCCCCC(=O)NCCO[C@@H]1O[C@H](CO[C@H]2O[C@H](CO)[C@@H](O)[C@H](O)[C@@H]2O)[C@@H](O)[C@H](O[C@H]2O[C@H](CO)[C@@H](O)[C@H](O)[C@@H]2O)[C@@H]1O` (some centres unmarked) [IOC-28]: the IC50 was 10.9 nM.
Still for that read-out and setting: for `CC(=O)[C@H](CCCCN)NC(=O)CCCCC(=O)NCC(=O)N[C@@H](CCC(=O)N[C@@H](CCC(=O)NCCCCCC(=O)N(CCOC1O[C@H](CO)[C@@H](O)[C@H](O)[C@@H]1O)CCO[C@H]1O[C@H](CO)[C@@H](O)[C@H](O)[C@@H]1O)C(=O)NCCCCCC(=O)N(CCOC1O[C@H](CO)[C@@H](O)[C@H](O)[C@@H]1O)CCOC1O[C@H](CO)[C@@H](O)[C@H](O)[C@@H]1O)C(=O)NCCCCCC(=O)NCCO[C@H]1O[C@H](CO[C@H]2O[C@H](CO)[C@@H](O)[C@H](O)[C@@H]2O)[C@@H](O)[C@H](O[C@H]2O[C@H](CO)[C@@H](O)[C@H](O)[C@@H]2O)[C@@H]1O` (some centres unmarked) [IOC-29] the value was 18.5 nM; for `CC(=O)[C@H](CCCCN)NC(=O)CCCCC(=O)NCC(=O)N[C@@H](CCC(=O)N[C@@H](CCC(=O)NCCCCCC(=O)N(CCOC1O[C@H](CO)[C@@H](O)[C@H](O)[C@@H]1O)CCO[C@H]1O[C@H](CO)[C@@H](O)[C@H](O)[C@@H]1O)C(=O)NCCCCCC(=O)N(CCOC1O[C@H](CO)[C@@H](O)[C@H](O)[C@@H]1O)CCOC1O[C@H](CO)[C@@H](O)[C@H](O)[C@@H]1O)C(=O)NCCCCCC(=O)NCCO[C@H]1O[C@H](CO[C@H]2O[C@H](CO)[C@@H](O)[C@H](O)[C@@H]2O)[C@@H](O)[C@H](O[C@H]2O[C@H](CO)[C@@H](O)[C@H](O)[C@@H]2O)[C@@H]1O` (some centres unmarked) [IOC-30], 37 nM.
